Data: PubChem BioAssay (NCI)
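The compound was tested at five concentrations on cells cultured in 96-well plates, with a 48-hour exposure period. TGI marks complete inhibition of growth.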

What was measured:
Experiment in all cases: NCI tumour cell line growth inhibition, 48 h
SN12C renal = tested on: SN12C renal
SNB-19 CNS = tested on: SNB-19 CNS
HT29 colon = tested on: HT29 colon
OVCAR-4 ovarian = tested on: OVCAR-4 ovarian
KM20L2 colon = tested on: KM20L2 colon
MOLT-4 leukemia = tested on: MOLT-4 leukemia
NCI-H522 lung = tested on: NCI-H522 lung
A498 renal = tested on: A498 renal
DMS 114 small cell lung = tested on: DMS 114 small cell lung
UACC-257 melanoma = tested on: UACC-257 melanoma
786-0 renal = tested on: 786-0 renal
SR leukemia = tested on: SR leukemia
LXFL 529 NSCLC = tested on: LXFL 529 NSCLC
HCT-15 colon = tested on: HCT-15 colon
LOX IMVI melanoma = tested on: LOX IMVI melanoma
HCC-2998 colon = tested on: HCC-2998 colon
A549 NSCLC = tested on: A549 NSCLC
DMS 273 small cell lung = tested on: DMS 273 small cell lung
M19-MEL melanoma = tested on: M19-MEL melanoma
CAKI-1 renal = tested on: CAKI-1 renal
SK-MEL-5 melanoma = tested on: SK-MEL-5 melanoma
SK-MEL-2 melanoma = tested on: SK-MEL-2 melanoma
NCI-H23 lung = tested on: NCI-H23 lung
UACC-62 melanoma = tested on: UACC-62 melanoma
SF-268 CNS = tested on: SF-268 CNS
NCI-H226 lung = tested on: NCI-H226 lung
SNB-78 CNS = tested on: SNB-78 CNS
OVCAR-3 ovarian = tested on: OVCAR-3 ovarian
RPMI-8226 leukemia = tested on: RPMI-8226 leukemia
KM12 colon = tested on: KM12 colon
SF-295 CNS = tested on: SF-295 CNS
M14 melanoma = tested on: M14 melanoma
SK-OV-3 ovarian = tested on: SK-OV-3 ovarian
IGROV1 ovarian = tested on: IGROV1 ovarian
SK-MEL-28 melanoma = tested on: SK-MEL-28 melanoma
U251 CNS = tested on: U251 CNS
OVCAR-8 ovarian = tested on: OVCAR-8 ovarian
HOP-92 NSCLC = tested on: HOP-92 NSCLC
SNB-75 CNS = tested on: SNB-75 CNS
DLD-1 colon = tested on: DLD-1 colon
TK-10 renal = tested on: TK-10 renal
RXF 393 renal = tested on: RXF 393 renal
OVCAR-5 ovarian = tested on: OVCAR-5 ovarian
SF-539 CNS = tested on: SF-539 CNS
XF 498 CNS = tested on: XF 498 CNS
K-562 leukemia = tested on: K-562 leukemia
MALME-3M melanoma = tested on: MALME-3M melanoma
CCRF-CEM leukemia = tested on: CCRF-CEM leukemia
HCT-116 colon = tested on: HCT-116 colon
SW-620 colon = tested on: SW-620 colon
HOP-18 NSCLC = tested on: HOP-18 NSCLC
HOP-62 NSCLC = tested on: HOP-62 NSCLC
NCI-H460 lung = tested on: NCI-H460 lung
ACHN renal = tested on: ACHN renal
COLO 205 colon = tested on: COLO 205 colon
RXF-631 renal = tested on: RXF-631 renal
UO-31 renal = tested on: UO-31 renal
EKVX NSCLC = tested on: EKVX NSCLC

In the case of `Cc1ccc(C)c(NC(=O)CCc2nc(=S)[nH][nH]2)c1`, the TGI (SN12C renal) is reported as over 100 µM, the TGI (SNB-19 CNS) is reported as over 100 µM and the TGI (HT29 colon) is reported as over 100 µM. The TGI (OVCAR-4 ovarian) was over 100 µM, the TGI (KM20L2 colon) was over 100 µM and the TGI (MOLT-4 leukemia) was over 100 µM. For the same molecule, the TGI (NCI-H522 lung) was over 100 µM, the TGI (A498 renal) was over 100 µM and the TGI (DMS 114 small cell lung) was over 100 µM. It also gave a TGI (UACC-257 melanoma) of over 100 µM, a TGI (786-0 renal) of over 100 µM and a TGI (SR leukemia) of over 100 µM. The TGI (LXFL 529 NSCLC) was over 100 µM, the TGI (HCT-15 colon) was over 100 µM and the TGI (LOX IMVI melanoma) was over 100 µM. For the same molecule, the TGI (HCC-2998 colon) was over 100 µM, the TGI (A549 NSCLC) was over 100 µM and the TGI (DMS 273 small cell lung) was over 100 µM. The TGI (M19-MEL melanoma) was over 100 µM, the TGI (CAKI-1 renal) was over 100 µM and the TGI (SK-MEL-5 melanoma) was over 100 µM. The TGI (SK-MEL-2 melanoma) was over 100 µM, the TGI (NCI-H23 lung) was over 100 µM and the TGI (UACC-62 melanoma) was over 100 µM. It also gave a TGI (SF-268 CNS) of over 100 µM, a TGI (NCI-H226 lung) of over 100 µM and a TGI (SNB-78 CNS) of over 100 µM. It also gave a TGI (OVCAR-3 ovarian) of over 100 µM, a TGI (RPMI-8226 leukemia) of over 100 µM and a TGI (KM12 colon) of over 100 µM. It also gave a TGI (SF-295 CNS) of over 100 µM, a TGI (M14 melanoma) of over 100 µM and a TGI (SK-OV-3 ovarian) of over 100 µM. The TGI (IGROV1 ovarian) was over 100 µM, the TGI (SK-MEL-28 melanoma) was over 100 µM and the TGI (U251 CNS) was over 100 µM. The TGI (OVCAR-8 ovarian) was over 100 µM, the TGI (HOP-92 NSCLC) was over 100 µM and the TGI (SNB-75 CNS) was over 100 µM. The TGI (DLD-1 colon) was over 100 µM, the TGI (TK-10 renal) was over 100 µM and the TGI (RXF 393 renal) was over 100 µM. For the same molecule, the TGI (OVCAR-5 ovarian) was over 100 µM, the TGI (SF-539 CNS) was over 100 µM and the TGI (XF 498 CNS) was over 100 µM. The TGI (K-562 leukemia) was over 100 µM, the TGI (MALME-3M melanoma) was over 100 µM and the TGI (CCRF-CEM leukemia) was over 100 µM. The TGI (HCT-116 colon) was over 100 µM, the TGI (SW-620 colon) was 33 µM and the TGI (HOP-18 NSCLC) was over 100 µM. The TGI (HOP-62 NSCLC) was over 100 µM, the TGI (NCI-H460 lung) was over 100 µM and the TGI (ACHN renal) was over 100 µM. It also gave a TGI (COLO 205 colon) of over 100 µM, a TGI (RXF-631 renal) of over 100 µM and a TGI (UO-31 renal) of over 100 µM. The TGI (EKVX NSCLC) was over 100 µM.
